Source: US11919901B2 (Syndax Pharmaceuticals, Inc., priority 2021, dated 2024)

These molecules were tested on MV4-11 cells (assay: Cell proliferation assay MV4;11 (CellTiter-Glo, 72 hours)). Conditions: Homo sapiens; MV4;11 leukemia cell line, 72 hours; read-out: MV4; 11 IC50.
Assay type: cell-based
Procedure: Compounds were evaluated for its capacity to inhibit the proliferation of the MLLr leukemia cell line MV4-11 that harbors an MLL1-AF4 fusion protein. MV4-11 cells were cultured for 72 hours with limiting dilutions of compounds and viability was measured using CellTiter-Glo.
Compounds were dissolved to obtain as 10 mM solution in DMSO. The stock was diluted 1:5 to the top concentration of 2 mM in 100% DMSO. For IC50 determination, serial 1:3.16 dilutions were prepared in 100% DMSO by diluting 20 μL into 43.5 μL of DMSO for 8 concentrations. Each prepared DMSO solution were further diluted 1:500 in the cell culture media to obtain the 2× dosing solutions. The final concentrations of tested compounds in the cell culture media ranged from 0.632 nM to 2000 nM.
MV4-11 cells were cultured in IMDM with 10% FBS and 1× Penicillin-Streptomycin at 5% CO2 and 37° C. A cell suspension was prepared containing 15,000 cells/ml in the culture medium and 100 μL of this suspension was added per well to a 96-well cell culture plate. Then, 100 μL of 2× dosing media containing test compounds were added bringing the total volume to 200 μL. These cells were cultured for 72 hours at 37° C. and 5% CO2 in a humidified incubator.
After 72 hours, the cultured cells were mixed and 100p L was transferred to a 96-well black plate. Cell Titer Glo (100 μl) was then added to this plate. The plate was mixed with shaking for 15 mins at RT, the luminescence was then measured using Tecan Spark 20M spectrophotometer. Cell Viability (%) was determined by RLU of test/RLU average vehicle control*100 and % max inhibition was determined by 100−(% cell viability remaining at the top concentration of compound).

`CCS(=O)(=O)N[C@@H]1CC[C@@H](CN2CCC3(CC2)CN(c2ncncc2Oc2ccc(F)cc2C(=O)N(C(C)C)C(C)C)C3)OC1` [Example 13, 2-((4-(7-(((2S,5R)-5-(Ethylsulfonamido)tetrahydro-2H-pyran-2-yl)methyl)-2,7-diazaspiro[3.5]nonan-2-yl)pyrimidin-5-yl)oxy)-5-fluoro-N,N-diisopropylbenzamide] and `CC(C)N(C(=O)c1cc(F)ccc1Oc1cncnc1N1CC2(CCN(C[C@@H]3CC[C@@H](NS(=O)(=O)C(C)C)CO3)CC2)C1)C(C)C` [Example 14, 5-Fluoro-N,N-diisopropyl-2-((4-(7-(((2S,5R)-5-((1-methylethyl)sulfonamido)tetrahydro-2H-pyran-2-yl)methyl)-2,7-diazaspiro[3.5]nonan-2-yl)pyrimidin-5-yl)oxy)benzamide] cannot be ordered by IC50: under 100 nM for the first, under 100 nM for the second.

`CC(C)N(C(=O)c1cc(F)ccc1Oc1cncnc1N1CC2(CCN(C[C@@H]3CC[C@@H](NS(=O)(=O)C4CC4)CO3)CC2)C1)C(C)C` [Example 15, 2-((4-(7-(((2S,5R)-5-(Cyclopropanesulfonamido)tetrahydro-2H-pyran-2-yl)methyl)-2,7-diazaspiro[3.5]nonan-2-yl)pyrimidin-5-yl)oxy)-5-fluoro-N,N-diisopropylbenzamide] and `CC(C)N(C(=O)c1cc(F)ccc1Oc1cncnc1N1CC2(CCN(C[C@@H]3CC[C@@H](NS(=O)(=O)C4COC4)CO3)CC2)C1)C(C)C` [Example 16, 5-Fluoro-N,N-diisopropyl-2-((4-(7-(((2S,5R)-5-(oxetane-3-sulfonamido)tetrahydro-2H-pyran-2-yl)methyl)-2,7-diazaspiro[3.5]nonan-2-yl)pyrimidin-5-yl)oxy)benzamide] cannot be ordered by IC50: under 100 nM for the first, under 100 nM for the second.

`CC(C)N(C(=O)c1cc(F)ccc1Oc1cncnc1N1CC2(CCN(C[C@@H]3CC[C@@H](NC(=O)OC(C)(C)C)CO3)CC2)C1)C1CC1` [Example 17, tert-Butyl ((3R,6S)-6-((2-(5-(2-(cyclopropyl(isopropyl)carbamoyl)-4-fluorophenoxy)pyrimidin-4-yl)-2,7-diazaspiro[3.5]nonan-7-yl)methyl)tetrahydro-2H-pyran-3-yl)carbamate] and `CC(C)N(C(=O)c1cc(F)ccc1Oc1cncnc1N1CC2(CCN(C[C@@H]3CC[C@@H](NS(=O)(=O)C(C)C)CO3)CC2)C1)C1CC1` [Example 20, N-Cyclopropyl-5-fluoro-N-isopropyl-2-((4-(7-(((2S,5R)-5-((1-methylethyl)sulfonamido)tetrahydro-2H-pyran-2-yl)methyl)-2,7-diazaspiro[3.5]nonan-2-yl)pyrimidin-5-yl)oxy)benzamide] cannot be ordered by IC50: under 100 nM for the first, under 100 nM for the second.

`CCS(=O)(=O)N[C@@H]1CC[C@@H](CN2CCC3(CC2)CN(c2ncncc2Oc2ccc(F)cc2C(=O)N(C(C)C)C2CC2)C3)OC1` [Example 19, N-Cyclopropyl-2-((4-(7-(((2S,5R)-5-(ethylsulfonamido)tetrahydro-2H-pyran-2-yl)methyl)-2,7-diazaspiro[3.5]nonan-2-yl)pyrimidin-5-yl)oxy)-5-fluoro-N-isopropylbenzamide] and `CC(C)N(C(=O)c1cc(F)ccc1Oc1cncnc1N1CC2(CCN(C[C@@H]3CC[C@@H](NS(=O)(=O)C4CC4)CO3)CC2)C1)C1CC1` [Example 21, 2-((4-(7-(((2S,5R)-5-(Cyclopropanesulfonamido)tetrahydro-2H-pyran-2-yl)methyl)-2,7-diazaspiro[3.5]nonan-2-yl)pyrimidin-5-yl)oxy)-N-cyclopropyl-5-fluoro-N-isopropylbenzamide] cannot be ordered by IC50: under 100 nM for the first, under 100 nM for the second.

Work on `CC(C)N(C(=O)c1cc(F)ccc1Oc1cncnc1N1CC2(CCN(C[C@@H]3CC[C@@H](NS(=O)(=O)C4COC4)CO3)CC2)C1)C1CC1` [Example 22, N-Cyclopropyl-5-fluoro-N-isopropyl-2-((4-(7-(((2S,5R)-5-(oxetane-3-sulfonamido)tetrahydro-2H-pyran-2-yl)methyl)-2,7-diazaspiro[3.5]nonan-2-yl)pyrimidin-5-yl)oxy)benzamide] yielded an IC50 of 100 to 1000 nM.
